Laboratory results as given in US12625427B2, “Naphthalimide sulfonate derivative, and photoacid generator and photoresist composition each comprising same” (SAMYANG CORPORATION, priority 2020, dated 2026).

How the values were obtained:
[1] = Measurement of thermal stability by thermogravimetric analyzer; assay type: physicochemical
Description: If a photoacid generator is thermally stable in a photoresist preparation process, a very good effect in terms of stability can be expected.

[2] = Measurement of solubility of photoacid generators in photoresist solvents; assay type: physicochemical; settings: for Solubility (w/v %) PGMEA: solvent PGMEA; for Solubility (w/v %) Cyclohexane: solvent cyclohexane
Description: In preparing a photoresist composition, solubility of a photoacid generator is very important.

Row | SMILES | Temperature at which 5% weight loss occurred [1] [°C] | Solubility (w/v %) PGMEA [2] [w/v %] | Solubility (w/v %) Cyclohexane [2] [w/v %]
1 | CCCCOC(CCC)c1ccc2c3c(cccc13)C(=O)N(OS(=O)(=O)C(F)(F)F)C2=O (stereo not shown) [Compound 8] | 232 | 50.0 | 62.3
2 | CCCC(OC)c1ccc2c3c(cccc13)C(=O)N(OS(=O)(=O)C(F)(F)F)C2=O (stereo not shown) [Compound 11] | 230 |  | 
3 | CCCC(OCCOC)c1ccc2c3c(cccc13)C(=O)N(OS(=O)(=O)C(F)(F)F)C2=O (stereo not shown) [Compound 19] | 234 | 60.0 | 64.1
4 | CCCCOCCOC(CCC)c1ccc2c3c(cccc13)C(=O)N(OS(=O)(=O)C(F)(F)F)C2=O (stereo not shown) [Compound 20] | 235 | 45.0 | 54.1
5 | O=C1c2cccc3cccc(c23)C(=O)N1OS(=O)(=O)C(F)(F)F [Formula II, reference compound] | 223 | 1.7 | 5.8
